This note sets out measurements from ChEMBL document CHEMBL1201862, “PubChem BioAssay data set” (2004).

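Compound exposure: 48 hours, 5 concentrations, 96-well plates. GI50 = concentration required for 50% inhibition of growth.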 The source made the active and inactive calls. Rule as the data show it: active = GI50 up to about 1.1 µM and inactive = higher. A value given as a limit tells only on which side of the number the result lay.

Experiment in all cases: NCI-60 cell line screen, 48 h
In test [1] the test system is SK-MEL-28.
Test [2] deals with EKVX.
The subject of test [3] is BT-549.
Test [4] deals with SN12C.
Test [5] has as its system HCT-116.
Test [6] concerns RPMI-8226.
In test [7] the test system is LOX IMVI.
The test system of test [8] is SK-MEL-5.
The test system of test [9] is UACC-257.
The test system of test [10] is MDA-N.
Test [11] concerns OVCAR-4.
Test [12] concerns 786-0.
Test [13] relates to A498.
For test [14], the system named is Hs-578T.
For test [15], the system named is SK-MEL-2.
The test system of test [16] is SF-539.
The test system of test [17] is MDA-MB-435.
The subject of test [18] is OVCAR-3.
For test [19], the system named is KM12.
Test [20] relates to MOLT-4.

Turning to `CC1(C)N=C(N)N=C(N)N1c1cccc(CSc2ccccc2)c1`, the GI50 in [1] was 0.805 µM (active); in test [2], 23 µM (inactive); in [3], 15.9 µM (inactive); in test [4], 0.0838 µM (active); in [5], 0.0588 µM (active); in test [6], 0.944 µM (active). Besides, the GI50 is 0.103 µM (active) in test [7]; 0.212 µM (active) in test [8]; 3.85 µM (inactive) in [9]; 0.037 µM (active) in test [10]; 2.29 µM (inactive) in [11]; 0.0929 µM (active) in [12]. For the same compound, the GI50 in test [13] is > 100 µM (inactive); in [14], 2.83 µM (inactive); in [15], 18.4 µM (inactive); in test [16] it was 0.461 µM (active); in test [17], 0.0813 µM (active); in test [18], 0.991 µM (active). For the same compound, the figures for the GI50 in test [19] and in test [20] were 0.718 µM (active) and 0.141 µM (active), respectively.

As for `C[C@]12CC[C@H]3[C@@H](CC[C@]4(O)C[C@@H](O)CC[C@]34/C=N/O)[C@@]1(O)CC[C@@H]2C1=COC(=O)C1`, the GI50 in [1] is 0.482 µM (active); in [2], 0.1 µM (active); in test [3], 0.0675 µM (active); in test [4] it was 0.251 µM (active); in test [5], 0.0403 µM (active); in test [6], 0.258 µM (active). The GI50 was 0.136 µM (active) in [7]; 0.0583 µM (active) in test [8]; 0.299 µM (active) in test [9]; 0.191 µM (active) in [10]; 0.0608 µM (active) in test [11]; 0.102 µM (active) in test [12]. Also, the GI50 in test [13] was 0.0929 µM (active); in test [14] it was 0.112 µM (active); in [15], 0.255 µM (active); in test [16], 0.104 µM (active); in test [17], 0.257 µM (active); in [18] it was 0.0472 µM (active). For the same compound, the values for the GI50 in test [19] and in [20] were 0.318 µM (active) and 0.0272 µM (active), respectively.

On to `CCN(CC)CCC(=O)c1ccc(Oc2ccc(Cl)cc2)cc1`, for which the GI50 was 17.7 µM (inactive) in test [1]; 19.5 µM (inactive) in [2]; 17 µM (inactive) in test [3]; 17.4 µM (inactive) in [4]; 17.6 µM (inactive) in test [5]; 3.82 µM (inactive) in test [6]. Besides, the GI50 is 14.6 µM (inactive) in test [7]; 17.5 µM (inactive) in test [8]; 14 µM (inactive) in test [9]; 16.1 µM (inactive) in [10]; 15.8 µM (inactive) in [11]; 14.9 µM (inactive) in test [12]. Besides, the GI50 in test [13] was 16.1 µM (inactive); in [14] it was 23.6 µM (inactive); in test [15], 14.5 µM (inactive); in test [16], 24.8 µM (inactive); in test [17], 18.1 µM (inactive); in test [18], 15.3 µM (inactive). For the same compound, the GI50 in [19] was 14.4 µM (inactive); in [20], 20.4 µM (inactive).

Take `CC(=O)O[C@H]1CC[C@@]2(C)C(=CC[C@H]3[C@@H]4C/C(=C\c5ccncc5)[C@H](OC(C)=O)[C@@]4(C)CC[C@@H]32)C1`: the GI50 was 5.74 µM (inactive) in test [1]; 9.55 µM (inactive) in [2]; 3.28 µM (inactive) in test [3]; 16.9 µM (inactive) in test [4]; 11.9 µM (inactive) in [5]; 2.46 µM (inactive) in [6]. Besides, the GI50 in test [7] was 3.48 µM (inactive); in [8] it was 5.47 µM (inactive); in test [9], 16.9 µM (inactive); in test [10], 18.3 µM (inactive); in [11], 4.65 µM (inactive); in test [12], 11.3 µM (inactive). Moreover, the GI50 in [13] is 12.9 µM (inactive); in test [14], 6.97 µM (inactive); in [15] it was 16.7 µM (inactive); in test [16] it was 3.95 µM (inactive); in [17] it was 12.9 µM (inactive); in [18], 11.3 µM (inactive). Besides, the GI50 in test [19] is 4.57 µM (inactive); in test [20], 3.04 µM (inactive).

For `Nc1cc2c(c3ccccc13)C(CCl)CN2C(=O)c1cc2cc(NC(=O)Nc3ccc4[nH]c(C(=O)N5CC(CCl)c6c5cc(N)c5ccccc65)cc4c3)ccc2[nH]1` (stereo not given), the GI50 in [1] is 0.659 µM (active); in test [2] it was 1.74 µM (inactive); in test [3], 0.776 µM (active); in test [4], 0.0656 µM (active); in test [5], 0.172 µM (active); in test [6], 1.4 µM (inactive). Besides, the GI50 is 0.0358 µM (active) in test [7]; 0.141 µM (active) in test [8]; 1.16 µM (inactive) in test [9]; 0.292 µM (active) in test [10]; 1.79 µM (inactive) in test [11]; 0.0153 µM (active) in test [12]. Further, the GI50 is 0.197 µM (active) in [13]; 1.35 µM (inactive) in [14]; 0.995 µM (active) in [15]; 0.0194 µM (active) in test [16]; 0.548 µM (active) in [17]; 0.467 µM (active) in test [18]. Further, the GI50 is 1.08 µM (active) in test [19] and < 0.01 µM (active) in [20].

On to `CCCCCCCCCCCC[C@H](O)[C@H]1CC[C@H]([C@H](O)CCCC[C@H](O)CCCCC[C@@H](O)CC2=C[C@H](C)OC2=O)O1`, for which the GI50 is 4.51 µM (inactive) in test [1]; 1.6 µM (inactive) in test [2]; 0.0026 µM (active) in test [3]; 5.83 µM (inactive) in test [4]; 1.76 µM (inactive) in test [5]; > 10 µM (inactive) in test [6]. Besides, the GI50 is 1.11 µM (active) in [7]; 1.75 µM (inactive) in test [8]; 0.407 µM (active) in test [9]; 2.37 µM (inactive) in test [10]; 17.6 µM (inactive) in [11]; 5.01 µM (inactive) in test [12]. Further, the GI50 was 4.58 µM (inactive) in test [13]; 5.43 µM (inactive) in test [14]; 3.05 µM (inactive) in [15]; 15.3 µM (inactive) in test [16]; 1.4 µM (inactive) in test [17]; 2.19 µM (inactive) in test [18]. The GI50 is 3.51 µM (inactive) in test [19] and 2.87 µM (inactive) in test [20].

For `C=C1C(=O)OC2C1C(OC(=O)/C(C)=C/C)CC(O)(CCl)C1C(O)C3OC3(C)C21O` (stereo not given), the GI50 in test [1] is > 50 µM (inactive); in test [2], > 50 µM (inactive); in test [3], 17.4 µM (inactive); in test [4], > 50 µM (inactive); in [5] it was 10.8 µM (inactive); in test [6], 16.1 µM (inactive). The GI50 in [7] was 18.9 µM (inactive); in [8], 28.2 µM (inactive); in test [9], > 50 µM (inactive); in [10], 26.6 µM (inactive); in test [11] it was > 50 µM (inactive); in [12], 15.9 µM (inactive). For the same compound, the GI50 was > 50 µM (inactive) in test [13]; > 50 µM (inactive) in test [14]; > 50 µM (inactive) in test [15]; > 50 µM (inactive) in test [16]; 48.5 µM (inactive) in test [17]; 27.5 µM (inactive) in test [18]. For the same compound, the figures for the GI50 in test [19] and in [20] were > 50 µM (inactive) and 13.6 µM (inactive), respectively.

On to `CCOC(=O)C1=CN(C(=O)c2ccccc2)CCC1Cc1ccccc1` (stereo not given), for which the GI50 in test [1] is 22.9 µM (inactive); in test [2] it was 24 µM (inactive); in test [3], 25.8 µM (inactive); in test [4], 23.1 µM (inactive); in test [5], 23.1 µM (inactive); in [6], 13.5 µM (inactive). Further, the GI50 in test [7] was 18 µM (inactive); in test [8], 15 µM (inactive); in [9] it was 15.8 µM (inactive); in test [10], 19.5 µM (inactive); in test [11], 24.5 µM (inactive); in [12] it was 28.6 µM (inactive). Besides, the GI50 was 7.87 µM (inactive) in test [13]; 20.5 µM (inactive) in test [14]; 16.8 µM (inactive) in [15]; 21.5 µM (inactive) in [16]; 20.4 µM (inactive) in [17]; 25.9 µM (inactive) in test [18]. Further, the GI50 in [19] is 26.1 µM (inactive); in test [20], 13.5 µM (inactive).

As to `Cc1c[nH]c2c(O)cc3c(c12)[C@H](CCl)CN3C(=O)c1cc2cc(NC(=O)Nc3ccc4[nH]c(C(=O)N5C[C@@H](CCl)c6c5cc(O)c5[nH]cc(C)c65)cc4c3)ccc2[nH]1` [BIZELESIN], the GI50 was 14.6 µM (inactive) in test [1]; > 100 µM (inactive) in test [2]; 24.9 µM (inactive) in [3]; 0.378 µM (active) in [4]; 2.6 µM (inactive) in [5]; 0.00131 µM (active) in [6]. In addition, the GI50 in [7] was 3.6 µM (inactive); in test [8] it was 12.5 µM (inactive); in [9], 14.6 µM (inactive); in test [10], 22.2 µM (inactive); in test [11], 17.3 µM (inactive); in [12], 4.9 µM (inactive). Also, the GI50 in test [13] is 0.904 µM (active); in [14], > 100 µM (inactive); in test [15], 34.4 µM (inactive); in test [16] it was 1.24 µM (inactive); in test [17], 0.113 µM (active); in test [18], 18.6 µM (inactive). The GI50 in test [19] was 12.1 µM (inactive); in [20], 0.418 µM (active).

For `N#C/C(=C\c1ccc([N+](=O)[O-])o1)c1n[nH]c(Cc2ccccc2)n1`, the GI50 was 2.03 µM (inactive) in [1]; 2.72 µM (inactive) in [2]; 2.53 µM (inactive) in test [3]; 1.49 µM (inactive) in test [4]; 0.232 µM (active) in test [5]; 0.335 µM (active) in test [6]. The GI50 was 1.07 µM (active) in [7]; 1.05 µM (active) in test [8]; 1.91 µM (inactive) in test [9]; 1 µM (active) in test [10]; 1.82 µM (inactive) in test [11]; 0.847 µM (active) in [12]. The GI50 is 6.32 µM (inactive) in test [13]; 3.98 µM (inactive) in test [14]; 1.99 µM (inactive) in test [15]; 1.32 µM (inactive) in [16]; 1.67 µM (inactive) in test [17]; 1.64 µM (inactive) in test [18]. For the same compound, the GI50 in [19] is 2.19 µM (inactive); in [20], 0.406 µM (active).
